The source of these data is ChEMBL document CHEMBL3351287, “β-Ionone derived apoptosis inducing endoperoxides; Discovery of potent leads for anticancer agents” (Eur J Med Chem, 2014).

Data set [1] relates to A549. The data set can be described thus: Induction of apoptosis in human A549 cells assessed as increase in hypodiploid sub-G1 DNA fraction at 10 uM after 24 hrs by propidium iodide-based flow cytometric analysis (reference value: 3 %). Format: functional.
Data set [2] concerns A549. The data set can be described thus: Cytotoxicity against human A549 cells after 48 hrs by SRB assay. Format: functional, cell-based. The following applies: A549, 48 h.
For data set [3], the system named is A549. Kind of data set: Induction of apoptosis in human A549 cells assessed as increase in intracellular ROS at 1 uM after 24 hrs using DCFH-DA by spectrofluorimetry relative to control. Format: functional, cell-based.
For data set [4], the system named is A549. Kind of data set: Induction of apoptosis in human A549 cells assessed as loss of membrane potential at 1 uM after 24 hrs using Rhodamine-123 by flow cytometric analysis (Rvb =12.1 %). Format: functional. (In flow cytometry, cells or beads pass a laser one at a time.)
Data set [5] has as its system THP-1. Kind of data set: Cytotoxicity against human THP1 cells after 48 hrs by SRB assay. The class given is functional, cell-based. The following applies: THP-1, 48 h. Background: Sulforhodamine B stains cellular protein and so reports cell mass.
A short description of data set [6]: Cytotoxicity against human PC3 cells after 48 hrs by SRB assay. The conditions noted are these: PC-3, 48 h. Format: functional, cell-based.
Data set [7] relates to MCF7. Kind of data set: Cytotoxicity against human MCF7 cells after 48 hrs by SRB assay. The class given is functional, cell-based. The following applies: MCF7, 48 h.
The test system of data set [8] is A549. The data set can be described thus: Induction of apoptosis in human A549 cells assessed as caspase 9 activation at 1 uM after 12 hrs […] by colorimetry relative to control. The class given is functional, cell-based.
The subject of data set [9] is A549. Kind of data set: Induction of apoptosis in human A549 cells assessed as caspase 3 activation at 1 uM after 12 hrs […] by colorimetry relative to control. The class given is functional, cell-based.
Data set [10] relates to A549. The data set can be described thus: Induction of apoptosis in human A549 cells assessed as increase in hypodiploid sub-G1 DNA fraction at 1 uM after 24 hrs by propidium iodide-based flow cytometric analysis (reference value: 3 %). The class given is functional.
The test system of data set [11] is CHO. Kind of data set: Cytotoxicity against CHO cells assessed as change in LDH at 10 to 100 uM after 48 hrs by LDH colorimetric assay relative to control. The following applies: chinese hamster. Format: cell-based, Cricetulus griseus.
The subject of data set [12] is A549. The data set can be described thus: Induction of apoptosis in human A549 cells assessed as loss of membrane potential at 2 uM after 24 hrs using Rhodamine-123 by flow cytometric analysis (Rvb =12.1 %). The class given is functional.
For data set [13], the system named is A549. The data set can be described thus: Induction of apoptosis in human A549 cells assessed as increase in hypodiploid sub-G1 DNA fraction at 2 uM after 24 hrs by propidium iodide-based flow cytometric analysis (reference value: 3 %). Format: functional.
Data set [14] relates to CHO. Kind of data set: Cytotoxicity against CHO cells assessed as change in LDH at 20 uM after 48 hrs by LDH colorimetric assay relative to control. The class given is cell-based, Cricetulus griseus. The conditions noted are these: chinese hamster.
The test system of data set [15] is CHO. The data set can be described thus: Cytotoxicity against CHO cells assessed as change in LDH at 1 uM after 48 hrs by LDH colorimetric assay relative to control. Format: cell-based, Cricetulus griseus. The following applies: chinese hamster.

Counter-ions that a name gives are not always drawn. Activity calls are given as the source filed them. The calls are words filed in the database; no cut-off is given here.

Consider `COc1ccc(/C=C/[C@@]23C=CC4(OO2)C(C)(C)CCC[C@]4(C)O3)c(OC)c1OC` (mixture of isomers), for which the Activity in [1] came out at 74.7%; in data set [4], 91.7%; in data set [10], 60.4%. For the same compound, the IC50 in [2] was 7 µM; in [5], 25 µM; in data set [6] it was above 100 µM; in [7], 18 µM. Besides, the result in data set [3], in [8] and in data set [9] was Active.

With `CO[C@@]12[C@H](COC(N)=O)C3=C(C(=O)C(C)=C(N)C3=O)N1C[C@@H]1N[C@@H]12` [MITOMYCIN], the IC50 in data set [2] was 0.04 µM; in data set [5], 0.1 µM; in data set [7], 0.2 µM.

Turning to `O=c1[nH]cc(F)c(=O)[nH]1` [FLUOROURACIL], it took 0.04 µM to reach half-maximal inhibition in [5] (IC50).

With `CC1(C)CCC[C@]2(C)O[C@]3(/C=C/c4cccc5ccccc45)C=CC12OO3` (mixture of isomers), the Activity came out at 80.3% in [1], 99.8% in data set [4] and 66.8% in [10]. Further, the IC50 in data set [2] was 0.02 µM; in data set [5] it was 7.4 µM; in [6], above 100 µM; in data set [7], 0.7 µM. The result in [3], in [8] and in data set [9] was Active.

As for `CC1(C)CCC[C@]2(C)O[C@]3(/C=C/c4ccccc4Br)C=CC12OO3` (mixture of isomers), the results for the Activity in [1], in data set [4] and in [10] were 78.2%, 99.8% and 44.9%, respectively. The 50% inhibitory concentration (IC50) in data set [2] is 2 µM; in data set [5], 0.1 µM; in data set [6], above 100 µM; in [7] it was 1.3 µM. Besides, the outcome in data set [3], in data set [8] and in data set [9] was Active.

With `CC1(C)CCC[C@]2(C)O[C@]3(/C=C/c4ccc(Cl)c(Cl)c4)C=CC12OO3` (mixture of isomers), the Activity in [1] is recorded as 71.7%; in data set [4], 63%; in data set [10], 48.2%. The IC50 in data set [2] is 4.1 µM; in data set [5] it was 0.2 µM; in data set [6] it was 21 µM; in [7] it was 4.2 µM. Besides, the outcome in [3], in data set [8] and in [9] was Active.

`CC1(C)CCC[C@]2(C)O[C@]3(/C=C/c4ccccc4F)C=CC12OO3` (mixture of isomers): the results for the Activity in [1], in data set [4] and in data set [10] were 74.8%, 99.8% and 60.7%, respectively. The concentration for half-maximal inhibition (IC50) is 0.003 µM in data set [2], 0.4 µM in data set [5], above 100 µM in data set [6] and 0.1 µM in data set [7]. For the same compound, the result in data set [3], in [8] and in data set [9] was Active.

As to `Cc1ccccc1/C=C/[C@@]12C=CC3(OO1)C(C)(C)CCC[C@]3(C)O2` (mixture of isomers), the Activity turned out to be 69.8% in [1], 50.5% in [4] and 67% in data set [10]. The IC50 turned out to be 4.3 µM in data set [2], 4 µM in data set [5], 20 µM in [6] and 0.01 µM in [7]. Besides, the outcome in data set [3], in [8] and in [9] was Active.

As for `COc1ccccc1/C=C/[C@@]12C=CC3(OO1)C(C)(C)CCC[C@]3(C)O2` (mixture of isomers), the Activity in data set [1] stood at 83%; in data set [4] it was 99.8%; in data set [10], 68.2%. For the same compound, the IC50 in [2] was 6.5 µM; in [5], 13 µM; in [6] it was above 100 µM; in data set [7], 11 µM. Besides, the result in [3], in data set [8] and in [9] was Active.

Take `CC1(C)CCC[C@]2(C)O[C@]3(/C=C/c4ccccc4Cl)C=CC12OO3` (mixture of isomers): the Activity in data set [1] is listed as 61%; in data set [4] it was 99.7%; in data set [10] it was 16.9%. For the same compound, the IC50 in data set [2] is 0.9 µM; in data set [5], 3.5 µM; in [6] it was 13 µM; in data set [7], 1 µM. Besides, the outcome in [3], in data set [8] and in data set [9] was Active.

Take `CC[C@@]1(O)C(=O)OCc2c1cc1n(c2=O)Cc2cc3ccccc3nc2-1` [CAMPTOTHECIN]: the Activity amounted to 126% in data set [11], 96.1% in data set [12] and 49% in data set [13].

For the compound `COc1ccc(/C=C/[C@@]23C=CC4(OO2)C(C)(C)CCC[C@]4(C)O3)cc1OC` (mixture of isomers), the Activity is 69.8% in [1], 99.7% in [4] and 67.9% in data set [10]. Besides, the IC50 is 12 µM in data set [2], 11 µM in [5], above 100 µM in data set [6] and 10 µM in [7]. Further, the outcome in data set [3], in [8] and in data set [9] was Active.

Take `CC1(C)CCC[C@]2(C)O[C@]3(/C=C/c4ccccc4[N+](=O)[O-])C=CC12OO3` (mixture of isomers): the Activity in [1] is reported as 76%; in data set [14] it was 135%; in [15], 108%; in data set [4] it was 99.7%; in [10] it was 74.8%. In addition, the IC50 in [2] is 0.001 µM; in [5] it was 2.8 µM; in [6] it was above 100 µM; in [7], 7.7 µM. Also, the result in data set [3], in data set [8] and in data set [9] was Active.

Consider `COc1cccc2c1C(=O)c1c(O)c3c(c(O)c1C2=O)C[C@@](O)(C(=O)CO)C[C@@H]3O[C@H]1C[C@H](N)[C@H](O)[C@H](C)O1` [DOXORUBICIN HYDROCHLORIDE], for which, in data set [2], half-maximal inhibition (IC50) was put at 0.1 µM.

One may read the IC50 as the concentration that gives 50% inhibition. Read a high IC50 as weaker potency.
